Measurements reported in US9428493B2, “Schweinfurthin analogues” (University of Iowa Research Foundation, priority 2012, dated 2016).

The compounds below were run on efflux pump (assay: efflux pump substrate activity).
Assay type: in vitro ADME
Excerpt: For the treatment of certain diseases, it may be beneficial to have a therapeutic agent that is not an efflux pump substrate. […] In one embodiment of the invention R^2 is (C1-C15)alkyl or (C2-C15) alkenyl. In one embodiment of the invention R^4 is (C1-C15)alkyl or (C2-C15)alkenyl. In one embodiment of the invention R^4 is (C1-C6)alkyl.

| SMILES | efflux pump substrate |
| --- | --- |
| COc1cc(/C=C/c2cc(OC)c3cc[nH]c3c2)cc2c1O[C@]1(C)CC[C@@H](O)C(C)(C)[C@H]1C2 [Compound 4, reference compound] | found to be an efflux pump substrate |
| COc1cc(/C=C/c2cc(O)c3ccn(C)c3c2)cc2c1O[C@]1(C)CC[C@@H](O)C(C)(C)[C@H]1C2 [Compound 7] | diminished activity as efflux pump substrates compared to Compound 4 |
| COc1cc(/C=C/c2cc(O)c3c(c2)C[C@@H]2C(C)(C)[C@H](O)CC[C@@]2(C)O3)cc2c1ccn2C [Compound 9] | diminished activity as efflux pump substrates compared to Compound 4 |
| COc1cc(/C=C/c2cc(O)c3c(CC=C(C)C)c[nH]c3c2)cc2c1O[C@]1(C)CC[C@@H](O)C(C)(C)[C@H]1C2 [Compound 10] | diminished activity as efflux pump substrates compared to Compound 4 |
